Consider 67 compounds from ChEMBL document CHEMBL1201862, “PubChem BioAssay data set” (2004).

Molecules are shown by their SMILES. Activity calls are given as the source filed them. Rule as the data show it, for most assays here: actives have a measured EC50 and inactives only a lower limit.

The target of test [1] is T1, Heat shock factor protein 1 (Mus musculus, UniProt P38532).
T1 sequence (P38532 whole entry): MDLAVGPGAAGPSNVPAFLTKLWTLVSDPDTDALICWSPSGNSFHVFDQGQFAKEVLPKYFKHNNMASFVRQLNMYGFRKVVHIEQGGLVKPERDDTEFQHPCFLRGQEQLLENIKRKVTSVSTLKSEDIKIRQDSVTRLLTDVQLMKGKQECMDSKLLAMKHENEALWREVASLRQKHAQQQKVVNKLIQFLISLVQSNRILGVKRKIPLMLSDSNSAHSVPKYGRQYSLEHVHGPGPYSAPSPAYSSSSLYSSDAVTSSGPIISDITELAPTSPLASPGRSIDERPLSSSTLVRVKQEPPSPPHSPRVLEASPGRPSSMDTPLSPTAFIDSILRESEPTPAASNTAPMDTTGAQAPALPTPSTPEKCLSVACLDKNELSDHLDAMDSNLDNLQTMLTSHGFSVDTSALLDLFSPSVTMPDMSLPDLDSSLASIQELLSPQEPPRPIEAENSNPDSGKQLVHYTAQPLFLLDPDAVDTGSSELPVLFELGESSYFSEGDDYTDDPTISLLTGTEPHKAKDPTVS
In words: inhibition of MG132-induced HSE-luciferase signal, confirmation, cell-based, NIH3T3, luminescence, dose retest (AID 2382).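 Also: NIH3T3 fibroblasts with HSF1-driven luciferase reporter stressed by proteasome inhibitor MG132; luminescence from HSF1-driven luciferase expression after 8 hours of MG132 stress.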 The test is classed as functional.

A short description of test [2]: HEp-2 cell cytotoxicity, dose response, cytotoxicity control for RSV inhibitor project, HTS (AID 2410). The test is classed as functional. The settings on record: human respiratory syncytial virus.
The nature of test [3]: inhibitors of intracellular T. cruzi replication, confirmation, NIH3T3 host cells, beta-gal luminescence (AID 2044).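 Also: intracellular parasites grown in NIH/3T3 mouse fibroblasts as host cells; luminescent beta-galactosidase reporter signal from transgenic T. cruzi replicating inside host cells; inhibitors lower the luminescence signal.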 The test is classed as functional, cell-based.
A short description of test [4]: cytotoxicity toward NIH3T3 fibroblasts, dose response, counter-screen, cell-based, ATP luminescence, mouse fibroblasts (AID 2010).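 Also: cells exposed to compound for about 90 hours before reading.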 The test is classed as functional. A general note: Counterscreens check selectivity or assay interference.
The target in another test is Cytochrome P450 2C9 (Homo sapiens, UniProt P11712).
Cytochrome P450 2C9, sequence (P11712 whole entry): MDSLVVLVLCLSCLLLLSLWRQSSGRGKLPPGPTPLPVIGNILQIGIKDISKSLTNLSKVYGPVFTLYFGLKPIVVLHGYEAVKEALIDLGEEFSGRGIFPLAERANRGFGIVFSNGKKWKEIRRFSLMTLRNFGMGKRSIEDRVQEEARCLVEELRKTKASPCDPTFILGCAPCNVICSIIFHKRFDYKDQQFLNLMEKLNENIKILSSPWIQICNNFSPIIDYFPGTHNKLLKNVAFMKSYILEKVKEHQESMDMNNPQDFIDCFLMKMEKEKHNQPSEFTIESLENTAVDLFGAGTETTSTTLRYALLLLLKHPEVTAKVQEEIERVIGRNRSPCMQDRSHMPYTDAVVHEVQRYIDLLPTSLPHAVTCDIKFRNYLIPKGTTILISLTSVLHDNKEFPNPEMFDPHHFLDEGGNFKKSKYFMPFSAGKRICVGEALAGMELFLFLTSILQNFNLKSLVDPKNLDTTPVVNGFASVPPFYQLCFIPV
A further test has as its target Cytochrome P450 2D6 (Homo sapiens, UniProt P10635).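 Also: CYP2D6 member of a cytochrome P450 panel assay.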
Test [5] has as its system Streptococcus sp. 'group A'. In words: growth inhibition of control SK(-) GAS strain, dose response, counter-screen for streptokinase expression inhibitor project, luminescence, kanamycin, BacTiterGlo, confirmation (AID 1900). The test is classed as functional, organism-based.
In another test the test system is Streptococcus. In words: Group A Streptococcus viability loss, dose response, counter-screen for streptokinase expression inhibitor project, luminescence, BacTiterGlo (AID 1915).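 Also: potency for reduction of bacterial viability or growth.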 The test is classed as functional, organism-based.

Cytochrome P450 2D6, sequence (P10635 whole entry): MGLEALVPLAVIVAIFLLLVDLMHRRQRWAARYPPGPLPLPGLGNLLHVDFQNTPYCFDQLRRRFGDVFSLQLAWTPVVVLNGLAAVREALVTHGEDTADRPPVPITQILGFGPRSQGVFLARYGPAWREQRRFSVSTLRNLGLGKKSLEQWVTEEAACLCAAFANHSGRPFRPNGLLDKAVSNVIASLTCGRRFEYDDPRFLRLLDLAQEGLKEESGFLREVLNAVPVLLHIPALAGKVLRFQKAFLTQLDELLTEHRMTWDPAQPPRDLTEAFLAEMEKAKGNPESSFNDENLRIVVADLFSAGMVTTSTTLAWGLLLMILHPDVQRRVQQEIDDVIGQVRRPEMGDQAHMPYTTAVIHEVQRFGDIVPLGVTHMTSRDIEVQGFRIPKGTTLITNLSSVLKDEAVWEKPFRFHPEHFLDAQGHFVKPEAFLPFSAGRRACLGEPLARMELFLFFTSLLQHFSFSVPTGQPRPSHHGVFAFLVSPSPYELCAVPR

For `CCN1c2nc3c(C)cccn3c(=O)c2CC2(C(=O)N(C)C(=O)N(C)C2=O)C1C` (centres undefined), in test [1], the EC50 is reported as > 195 µM (not active). `CCC(C(=O)NC(C)(C)C)N(Cc1ccc(F)cc1)C(=O)c1snc(C(N)=O)c1N` (centres undefined): in test [1], the EC50 was > 195 µM (not active). On to `COc1ccc(Cn2c(SC)nc3ccccc32)cc1[N+](=O)[O-]`, for which, in test [1], the EC50 is on record as > 195 µM (not active).

`COc1ccc(Nc2nc(-c3cccs3)nc3ccccc23)cc1S(=O)(=O)N1CCOCC1`: in test [2], the CC50 was 17.1 µM (active). Further, the 50% effective concentration (EC50) was 1.25 µM (active) in test [3] and 10.1 µM (active) in test [4]. Turning to `Clc1ccc(-n2cccc2CN2CCc3c([nH]c4ccccc34)C2c2ccccn2)nc1` (centres undefined), the CC50 in test [2] is 25.1 µM (active). Turning to `O=C(Oc1ccccc1)N1CCC[C@@]2(CCN(c3ccccn3)C2)C1`, the AC50 on Cytochrome P450 2C9 was 39.8 µM (inconclusive). In the case of `OC[C@@H]1O[C@@H](n2cnc3c(N[C@H]4CCC[C@@H]4O)ncnc32)[C@H](O)[C@H]1O`, the AC50 at Cytochrome P450 2D6 is 15.8 µM (inconclusive). With `Cn1c(=O)c2c(nc(Oc3cccc(O)c3)n2C)n(C)c1=O`, in test [1], the EC50 is given as > 195 µM (not active). `N#Cc1cccc(C#N)c1Oc1ccc(S(=O)(=O)Nc2ccc(Cl)cc2)cc1`: the EC50 in test [1] is > 195 µM (not active). With `CCN(CC)CCCN/C(C)=C1\C(=O)NC(=O)N(C2CCCCC2)C1=O`, the EC50 in test [3] was 0.35 µM (active); in test [4] it was > 60 µM (not active).

Regarding `COc1ccc(CC(=O)Nc2cc(C)on2)cc1`, the EC50 in test [1] is > 195 µM (not active). With `C=CCSc1nc(N)cc(O)n1`, the EC50 in test [1] is on record as > 195 µM (not active). Consider `CS(=O)(=O)Nc1cccc(-c2ccc3ncnc(NCc4cccs4)c3c2)c1`, for which the AC50 at Cytochrome P450 2C9 is 0.501 µM (inconclusive). Consider `COc1cccc(Cn2c(=O)c(-c3cc(F)cc(F)c3)nc3cnc(OC)nc32)c1`, for which the AC50 on Cytochrome P450 2C9 is 3.16 µM (inconclusive).

Regarding `Cn1nc(-c2ccc(Cl)cc2)cc1NC(=O)Nc1ccccc1`, the half-maximal cytotoxic concentration (CC50) in test [2] was > 50 µM (active). `CN1CCN(c2ccc([N+](=O)[O-])c(N/N=C3\CN4CCC3CC4)c2)CC1`: the AC50 at Cytochrome P450 2C9 is 0.01 µM (inconclusive). `O=C(O)CCn1cc(/C=C2\NC(=S)N(c3ccccc3)C2=O)c(-c2ccc(Br)cc2)n1`: the EC50 in test [1] was > 195 µM (not active). Consider `CCN(CC)CCNc1cc(C)c(C#N)c2nc3ccccc3n12`, for which the EC50 is 1.09 µM (active) in test [3] and > 60 µM (not active) in test [4]. Turning to `Cc1ccc(/C(C#N)=C\c2cn(C)c3ccccc23)cc1`, the CC50 in test [2] was 33.5 µM (active). On to `C[n+]1c(/C=C/c2ccc3c(c2)OCO3)ccc2ccccc21`, for which, in test [1], the EC50 was 0.181 µM (active). As to `Cn1nc([N+](=O)[O-])nc1Oc1ccccc1`, the EC50 in test [3] was 0.459 µM (active); in test [4], > 60 µM (not active).

As to `COC(=O)C(O)(c1ccc(NC(=S)NC(=O)c2ccc(Cl)cc2Cl)cc1)C(F)(F)F` (centres undefined), the CC50 in test [2] was > 50 µM (active). As for `CN(C)C(=O)N1CCC(C(=O)NCc2ccc(F)cc2Cl)CC1`, in test [1], the EC50 is reported as > 195 µM (not active). Still for that read-out and setting: to `O=C1NC(=O)C2(CCc3ccccc32)N1` (centres undefined) belongs > 195 µM (not active). For `Cn1c(=O)c(-c2cccc(Cl)c2)nc2cncnc21`, the AC50 at Cytochrome P450 2C9 is 39.8 µM (inconclusive). As to `COc1ccc(-c2cc(-c3ccccc3)nc(Cl)n2)cc1OC`, the CC50 in test [2] is 19.1 µM (active). Still for that read-out and setting: then `CCOc1cc(-n2ncc(C#N)c2N)nc(SC)n1`, with 17.1 µM (active). As for `O=C(Nc1ccc(Cl)cn1)c1ccc2c(Cl)c3c(nc2c1)CCC3`, in test [1], the EC50 was 22.5 µM (active). On to `CC(=O)N1CCC[C@@]2(CCN(c3ncccn3)C2)C1`, for which the AC50 on Cytochrome P450 2D6 was 15.8 µM (inconclusive).

As to `FC(F)(F)c1ccccc1-c1nc(Nc2ccncc2)c2ccccc2n1`, the AC50 at Cytochrome P450 2C9 was 0.794 µM (inconclusive).

Consider `CCC(C)c1ccccc1NC(=O)c1cc2cccc([N+](=O)[O-])c2[nH]1` (centres undefined), for which the values for the EC50 in test [3] and in test [4] were 1.35 µM (active) and > 60 µM (not active), respectively. Regarding `Cc1cccc(CNc2ccnc(-c3ccoc3)n2)c1`, the AC50 at Cytochrome P450 2D6 is 31.6 µM (inconclusive). Regarding `O=C(COc1ccccc1)NC1C(=O)N2C(C(=O)O)=C(Cl)CSC12` (centres undefined), the EC50 was 0.301 µM (active) in test [5] and 0.372 µM (active) in the test on Streptococcus.

For `CCCS(=O)(=O)N1CCCC(C(=O)NCCN2CCOCC2)C1` (centres undefined), on Cytochrome P450 2C9, the AC50 is 7.08 µM (inconclusive). On to `Cc1ccc(-n2c(S)nnc2CNc2ccc(C)c(Cl)c2)cc1`, for which the CC50 in test [2] is 27.7 µM (active).

Consider `CC1CCCN(S(=O)(=O)c2ccc(Br)s2)C1` (centres undefined), for which, in test [1], the EC50 is > 195 µM (not active). In the case of `COc1ccc(/C=N/c2c(-c3ccc(OC)cc3)nc3n2CCS3)cc1`, in test [1], the EC50 is on record as > 195 µM (not active). On to `CS(=O)(=O)N1CCc2cc(-c3csc(NC(=O)C(c4ccccc4)c4ccccc4)n3)ccc21`, for which the EC50 in test [3] was 1.45 µM (active); in test [4], > 60 µM (not active).

In the case of `Cc1occc1-c1nc(-c2ccncc2)no1`, in test [2], the CC50 is 39.6 µM (active).

Take `CCc1cccc(Nc2c([N+](=O)[O-])cc(C(=O)N3CC(=O)Nc4ccccc43)cc2[N+](=O)[O-])c1`: the EC50 in test [3] is 1.1 µM (active); in test [4] it was > 30 µM (not active). On to `Cn1c(/C=C/c2ccccc2)nc2ccccc2c1=O`, for which the EC50 in test [1] is > 195 µM (not active). For the compound `COc1ccc(Cn2nnc3c(O)nc(C4CCN(S(=O)(=O)c5ccc(C)cc5)CC4)nc32)cc1`, the CC50 in test [2] was 15.7 µM (active). Consider `C[C@H](NC[C@H](O)CP(=O)(O)Cc1ccccc1)c1ccc(Cl)c(Cl)c1`, for which, at Cytochrome P450 2C9, the AC50 was 15.8 µM (inconclusive). `Cc1nn(Cc2cccc(C(=O)Nc3ccn(Cc4c(F)c(F)cc(F)c4F)n3)c2)c(C)c1[N+](=O)[O-]`: in test [2], the CC50 was 23.8 µM (active). Also, the EC50 was 0.882 µM (active) in test [3] and > 60 µM (not active) in test [4]. For the compound `CC(C)OC(=O)C1=C2SCC(=O)N2C(N)=C(C#N)C1`, the AC50 on Cytochrome P450 2D6 was 25.1 µM (inconclusive). With `COc1cccc(C(=O)Nc2cccc(-c3ccccc3)c2)c1`, the CC50 in test [2] was 29.6 µM (active). On to `Cn1nc(C(F)(F)F)c(C(=O)Nc2ccc(F)cc2F)c1Sc1ccc(C(F)(F)F)cc1`, for which the AC50 at Cytochrome P450 2D6 was 14.1 µM (inconclusive). For the compound `O=c1c(-c2ccc(F)cc2)nc2cnc(N3CCNCC3)nc2n1Cc1cccs1`, the AC50 on Cytochrome P450 2D6 was 20 µM (inconclusive). Regarding `O=c1ccc2ccc(OCCOc3cccc(Cl)c3)cc2o1`, the CC50 in test [2] is 42.4 µM (active).

As for `O=C(NC(c1ccccc1)c1cc(Cl)c2cccnc2c1O)c1cccnc1` (centres undefined), the EC50 is 0.64 µM (active) in test [5], 0.488 µM (active) in test [3], > 60 µM (not active) in test [4] and 2.15 µM (active) in the test with Streptococcus.

With `Clc1cccc(/C=N\C=N/c2cccc(Cl)c2)c1`, the AC50 at Cytochrome P450 2D6 was 25.1 µM (inconclusive).

Consider `COc1ccc(Cn2nnnc2C(c2cc3cccc(C)c3nc2O)N2CCN(C)CC2)cc1` (centres undefined), for which the concentration for a half-maximal effect (EC50) in test [1] is recorded as > 195 µM (not active). `COCCNC(=O)CCc1nnc(C2(c3ccc(Cl)cc3)CCC2)o1`: the EC50 in test [1] is > 195 µM (not active). Turning to `O=C(NCc1ccccc1Cl)C(=O)c1c[nH]c2ccccc12`, the CC50 in test [2] is > 6.25 µM (active). Turning to `CC(C)OCCCn1c(NN)nc2ccccc2c1=O`, in test [1], the EC50 is listed as > 195 µM (not active).

As for `CCCCCCCC(=O)NNC(=O)c1c(O)c2ccccc2n(CCC)c1=O`, the EC50 in test [5] is 2.67 µM (active); with Streptococcus it was 4.91 µM (active). On to `COC(=O)C(Cc1ccccc1)NC(=O)CNC(=O)c1sc2ccccc2c1Cl` (centres undefined), for which the EC50 in test [1] is > 195 µM (not active).

Regarding `O=[N+]([O-])c1ccc(N2CCN(Cc3ccc4c(c3)OCO4)CC2)nc1`, in test [1], the EC50 was > 195 µM (not active). Regarding `COc1ccc(CNC(=O)C2CC(c3ccc(OC)cc3)=NO2)cc1` (centres undefined), the concentration at half-maximal activity (AC50) at Cytochrome P450 2D6 was 8.91 µM (inconclusive). On to `O=S(=O)(NCC(c1cccnc1)N1CCN(Cc2ccccc2)CC1)c1ccccc1` (centres undefined), for which the EC50 was 0.634 µM (active) in test [3] and > 60 µM (not active) in test [4]. Regarding `COc1cc(C(C(=O)NCc2ccccc2)N(Cc2ccco2)C(=O)c2cnccn2)cc(OC)c1OC` (centres undefined), in test [1], the EC50 is reported as > 195 µM (not active).

Turning to `CNCCCCOc1ccc(C(C)(C)C)cc1Cl`, the EC50 in test [3] was 0.834 µM (active); in test [4] it was 9.37 µM (active).

As for `CCOC(=O)C1=C(C)N(CCC(=O)O)C(=O)NC1c1ccccc1Cl` (centres undefined), in test [1], the EC50 is > 195 µM (not active). For the compound `CN(C)Cc1cc(O)c(O)c(CN(C)C)c1`, the AC50 on Cytochrome P450 2C9 was 7.94 µM (inconclusive). As for `Cc1cc(C(=O)NNS(=O)(=O)c2ccc(F)cc2)nn1C(C)(C)C`, the concentration giving a half-maximal response (EC50) in test [1] was > 195 µM (not active). For `CCN(CC)CCn1c(=N)n(CCOc2ccccc2)c2ccccc21`, the EC50 in test [3] is 1.43 µM (active).

Take `CC(NC(=O)c1ccccc1Br)c1ccc2c(c1)CCCC2` (centres undefined): in test [2], the CC50 is 21.5 µM (active).

The EC50 is the concentration at which the effect is half-maximal. Broadly, the CC50 is the concentration that lowers cell viability or growth by half. The AC50 is the concentration giving half of the maximal activity seen.
